Each structure is given as a SMILES string. Square brackets hold non-standard residues; d marks the D form. Peptide text beside a SMILES is read from it. * marks the point of attachment. Cya = N[C@@H](CS(=O)(=O)O)C(=O)O; Cha = N[C@@H](CC1CCCCC1)C(=O)O; Phg = N[C@H](C(=O)O)c1ccccc1; Piperidide = C1CCN(*)CC1; PhAc = O=C(Cc1ccccc1)*; Bz = O=C(c1ccccc1)*

The target in the first assay is VLA-4 (Homo sapiens, UniProt P05556+P13612). Description: In vitro binding assay: 51Cr-labeled Jurkat cells to solid phase-bound CS-1 compound (SEQ ID NO:1). The arrangement: inflammatory cells that contain the VLA-4 receptor [Jurkat cells; host or cells: Jurkat cells (human T lymphoblastic line). The format is cell-based.
Sequence of VLA-4 (P13612 34-1032): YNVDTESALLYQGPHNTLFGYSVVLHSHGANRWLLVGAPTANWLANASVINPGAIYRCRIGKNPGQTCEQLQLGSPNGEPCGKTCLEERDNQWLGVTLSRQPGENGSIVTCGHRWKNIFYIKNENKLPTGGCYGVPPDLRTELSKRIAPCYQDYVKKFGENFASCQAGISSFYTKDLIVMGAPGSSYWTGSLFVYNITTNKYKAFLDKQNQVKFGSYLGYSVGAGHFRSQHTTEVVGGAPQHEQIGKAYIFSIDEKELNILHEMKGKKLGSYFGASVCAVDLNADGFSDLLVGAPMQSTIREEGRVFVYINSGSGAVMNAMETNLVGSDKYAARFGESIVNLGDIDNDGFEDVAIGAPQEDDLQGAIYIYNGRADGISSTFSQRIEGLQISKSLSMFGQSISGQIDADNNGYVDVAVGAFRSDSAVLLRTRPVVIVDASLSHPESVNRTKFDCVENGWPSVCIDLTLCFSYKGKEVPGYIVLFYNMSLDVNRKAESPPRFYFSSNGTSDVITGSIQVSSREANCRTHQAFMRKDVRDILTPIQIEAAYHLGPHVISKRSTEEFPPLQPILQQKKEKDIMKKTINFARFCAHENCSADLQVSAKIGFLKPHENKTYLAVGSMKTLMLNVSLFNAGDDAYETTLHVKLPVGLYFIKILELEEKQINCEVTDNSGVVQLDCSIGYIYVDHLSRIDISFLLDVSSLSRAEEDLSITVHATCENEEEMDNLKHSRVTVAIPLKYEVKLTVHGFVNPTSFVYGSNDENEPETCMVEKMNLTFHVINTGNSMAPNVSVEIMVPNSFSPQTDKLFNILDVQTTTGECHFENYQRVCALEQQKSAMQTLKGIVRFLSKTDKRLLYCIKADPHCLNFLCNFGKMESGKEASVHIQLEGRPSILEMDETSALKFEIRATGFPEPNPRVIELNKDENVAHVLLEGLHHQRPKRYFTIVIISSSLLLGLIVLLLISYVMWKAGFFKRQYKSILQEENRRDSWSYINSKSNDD
Sequence of VLA-4 (P05556 21-798): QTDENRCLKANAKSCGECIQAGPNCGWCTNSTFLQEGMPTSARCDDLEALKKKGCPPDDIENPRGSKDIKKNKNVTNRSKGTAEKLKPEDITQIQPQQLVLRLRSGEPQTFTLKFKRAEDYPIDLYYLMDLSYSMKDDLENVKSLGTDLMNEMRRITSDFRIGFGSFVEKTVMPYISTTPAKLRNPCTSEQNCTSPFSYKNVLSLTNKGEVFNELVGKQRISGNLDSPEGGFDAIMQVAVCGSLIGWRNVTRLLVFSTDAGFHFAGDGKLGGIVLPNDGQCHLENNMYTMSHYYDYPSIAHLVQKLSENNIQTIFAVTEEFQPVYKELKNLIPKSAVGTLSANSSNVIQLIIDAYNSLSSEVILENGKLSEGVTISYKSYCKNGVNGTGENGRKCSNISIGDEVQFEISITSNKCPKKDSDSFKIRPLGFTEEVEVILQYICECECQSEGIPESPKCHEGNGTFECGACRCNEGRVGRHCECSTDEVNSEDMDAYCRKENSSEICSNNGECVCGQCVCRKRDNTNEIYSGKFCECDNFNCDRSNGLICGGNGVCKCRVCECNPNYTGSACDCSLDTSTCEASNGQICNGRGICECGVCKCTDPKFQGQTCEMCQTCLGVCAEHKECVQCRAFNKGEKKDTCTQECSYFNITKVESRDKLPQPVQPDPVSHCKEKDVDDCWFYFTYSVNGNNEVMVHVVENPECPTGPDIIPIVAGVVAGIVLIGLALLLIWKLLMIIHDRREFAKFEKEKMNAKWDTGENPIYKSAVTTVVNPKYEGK
Conditions: not given
The method, then: Binding inhibition is measured here as a concentration of compound that inhibits one-half the binding between a standard number of Jurkat cells and a standard amount of CS-1 compound bound to the surface of a microtiter plate well. Those concentrations are conveniently expressed as IC50 values, smaller numbers indicating a lower concentration required to inhibit 50 percent binding and therefore greater potency. Further specifics of this assay are provided hereinafter.
Jurkat cells (ATCC TIB 152), a human T lymphoblastic line, labeled with ^51 chromium were used to assay in vitro binding inhibition provided by various compounds discussed herein.
The plates were prepared as follows: The 25-mer CS-1 compound (SEQ ID NO:1) dissolved at 0.5-1 μg/ml in a buffer of 0.1M NaHCO3 at pH 9.5 that also contained 10 μg/ml of bovine serum albumin (BSA) or a conjugate of the CS-1 compound linked to ovalbumin (CS-1-OVA) dissolved at 1-2.5 μg/ml in the same buffer was used as the substrate. Each well of the microtiter plates was coated with 50 μl of substrate or buffer alone for controls. The wells were permitted to dry out completely and were then rinsed twice with PBS at pH 7.4. Non-specific binding sites of each well were then blocked using 200 μl per well of RPMI/1 percent BSA for two hours at room temperature.
Jurkat cells (3-5×10^6 cells) were placed into a 15 ml Falcon™ round-bottom tube with a cap. The tube was centrifuged, and the extra medium was then removed.
Two hundred microliters of a ^51 Cr labeling solution were added to the centrifuged cells and maintained in contact with the cells for 90-120 minutes in a warm room. […] Longer contact times provide a greater amount of labeling but lower cell viability.
The labeled cells are washed with (i) complete medium, (ii) 1 mM EDTA/PBS and then (iii) RPM1/1 percent BSA free of serum components. The cells are centrifuged after each washing. The cells are finally resuspended in serum-free RPMI/1 percent BSA at a concentration of 1×10^6 viable cells/ml, which provides a concentration that is diluted by one-half in the assay.
Inhibitor compounds are prepared as stock solutions at 20 mg/ml in DMSO in 1.5 ml cryogenic screwcap vials, and were stored at -70° C. Using Flow™ round-bottom or V-bottom microtiter plates, the inhibitor compounds were prepared at twice the assay concentration in RPMI/1 percent BSA at 60 μl/well.
Four initial dilutions were typically used.
The ^51 Cr-labeled cells ([…] at 60 μl/well) were then admixed with the diluted compound solutions. The admixtures were maintained at room temperature (about 22° C.) for 30 minutes.
One hundred microliters of each inhibitor compound/cell admixture were transferred to the substrate-coated wells. This was done in triplicate for each dilution. The resulting plates were incubated for 30 minutes at 37° C. and then washed gently three times with RPMI/1 percent BSA at 200 μl/well. Binding was observed microscopically, particularly after the second wash.
The bound cells were then lysed by the addition of a 0.5 percent solution of sodium dodecylsulfate in water at 100 μl/well. The resulting solutions were then processed for counting and calculation of IC50 values following usual procedures.
The data of Table 1 are normalized to the binding of SEQ ID NO: 3. […] Multiple assays for the same compound were averaged.
For the compound `CC(C)[C@@H]1CC[C@@H](C)C[C@H]1OCC(=O)N[C@@H](CC(=O)O)C(=O)N[C@@H](Cc1ccccc1)C(=O)N1CCC[C@@H]1C(N)=O` [1056.06], the “Relative Potency” value worked out at 0.

The assay is the same for the next values; noted with them: binding inhibition potency (IC50) relative to standard compound of SEQ ID NO:3 = 1; about one-tenth or less assigned zero.
Consider `NC(=O)[C@H]1CCCN1C(=O)[C@H](Cc1ccccc1)NC(=O)[C@H](CC(=O)O)NC(=O)[C@H](CC1CCCCC1)NC(=O)c1ccccc1` [896.31] (Bz-[Cha]DF[dP]-NH2), for which the “Relative Potency” value came to 11.
Consider `CC(C)C[C@H](NC(=O)c1ccccc1)C(=O)N[C@@H](CC(=O)O)C(=O)N[C@H](C(=O)N1CCC[C@H]1C(N)=O)C(C)C` [896.35], for which the “Relative Potency” value turned out to be 16.
On the same count and under the same terms, with `CC(C)C[C@H](NC(=O)Cc1ccccc1)C(=O)N[C@@H](CS)C(=O)N[C@@H](Cc1ccccc1)C(=O)N1CCC[C@@H]1C(N)=O` [896.59] (PhAc-LCF[dP]-NH2) the figure was 0; with `CC(C)C[C@H](NC(=O)Cc1ccccc1)C(=O)N[C@@H](CC(=O)O)C(=O)N[C@H](C(=O)N1CCC[C@@H]1C(N)=O)c1ccccc1` [896.69] (PhAc-LD[Phg][dP]-NH2), 61; with `CC(C)C[C@H](NC(=O)c1ccccc1)C(=O)N[C@@H](CC(=O)O)C(=O)N[C@H](C(=O)N1CCC[C@@H]1C(N)=O)C(C)C` [926.02], 9.6.
Same read-out and setting: the same measure for `O=C(O)C[C@H](NC1CCN(C(=O)Cc2ccccc2)CC1)C(=O)N[C@@H](Cc1ccccc1)C(=O)N1CCCC1` [992.01]: 0; for `CC(C)C[C@H](NC(=O)Cc1ccccc1)C(=O)N[C@@H](CC(=O)O)C(=O)N[C@@H](Cc1ccccc1)C(N)=O` [997.12] (PhAc-Leu-Asp-Phe-NH2): “.45”; for `CC(C)C[C@H](NC(=O)Cc1ccccc1)C(=O)N[C@@H](CC(=O)O)C(=O)NC1Cc2ccccc2N(CCN2CCOCC2)C1=O` (stereo partly drawn) [997.18]: 20.
Turning to `CC(C)C[C@H](NC(=O)Cc1ccccc1)C(=O)NC(CC(=O)O)(CC(=O)O)C(=O)N[C@@H](Cc1ccccc1)C(=O)N1CCCCC1` [1026.01], the “Relative Potency” value is given as 0.
Same read-out and setting: with `CC(C)C[C@H](NC(=O)Cc1ccccc1)C(=O)NC(C(=O)O)C(=O)N[C@@H](Cc1ccccc1)C(=O)N1CCCCC1` (stereo partly drawn) [1026.02] the figure was 0; with `CC(C)C[C@H](NC(=O)Cc1ccccc1)C(=O)N[C@@H](CS(=O)(=O)O)C(=O)N[C@@H](Cc1ccccc1)C(=O)N1CCCCC1` [1026.06] (PhAc-Leu-[Cya]-Phe-Piperidide), 0; with `CC(C)C[C@H](NC(=O)Cc1ccccc1)C(=O)N[C@@H](CP(=O)(O)O)C(=O)N[C@@H](Cc1ccccc1)C(=O)N1CCCCC1` [1026.07], 0.
Still for that read-out and setting: with `CC(C)C[C@H](NC(=O)Cc1ccccc1)C(=O)N[C@@H](CS(N)(=O)=O)C(=O)N[C@@H](Cc1ccccc1)C(=O)N1CCCCC1` [1026.08] the figure was 0; with `CC(C)CN(CC(=O)Nc1ccccc1)C(=O)CN(CC(=O)O)C(=O)CN(Cc1ccccc1)C(=O)C1CCCC1` [1032.02], “.63”; with `CC(C)C[C@@H](CN[C@@H](CC(=O)O)C(=O)N[C@@H](Cc1ccccc1)C(=O)N1CCCCC1)NC(=O)Cc1ccccc1` [1041.01], 0.
Same read-out and setting: the same measure for `CC(C)C[C@H](NC(=O)Cc1ccccc1)C(=O)N[C@@H](CC(=O)O)C(=O)N1C(=O)N(Cc2ccccc2)C(=O)[C@H]1Cc1ccccc1` [1047.07]: “.38”; for `CC(C)C[C@H](NC(=O)Cc1ccccc1)C(=O)N[C@@H](CC(=O)O)C(=O)N1C(=O)N(Cc2ccccc2)C(=O)[C@@H]1Cc1ccccc1` [1047.08]: “.38”.
With `CC(C)C[C@H](NC(=O)Cc1ccccc1)C(=O)N[C@@H](CC(=O)O)C(=O)N[C@@H](Cc1ccccc1)C(=O)NCCCO` [1051.05], the “Relative Potency” value is 25.
Take `NC(=O)[C@H]1CCCN1C(=O)[C@H](Cc1ccccc1)NC(=O)[C@H](CC(=O)O)NC(=O)CCCCC1CCSS1` (stereo partly drawn) [1056.09]: the “Relative Potency” value stood at 1.1.
Still for that read-out and setting: with `O=C(O)CC(C(=O)N[C@@H](Cc1ccccc1)C(=O)N1CCCCC1)N1CC[C@H](NC(=O)Cc2ccccc2)C1=O` (stereo partly drawn) [1057.01] the entry was “.88”.

Source of the values: patent US5821231A, “CS-1 peptidomimetics, compositions and methods of using same” (Cytel Corporation, priority 1995, dated 1998).
